{
  "source": "patent US4857455A",
  "about": "“Method for the determination of peroxidase using fluorogenic substrates” (Syntex (U.S.A) Inc., priority 1982, dated 1989)",
  "assay_type_in_all_cases": "biochemical, horseradish",
  "key": {"HRP": {"molecular_target": "T1, HRP (Armoracia rusticana, UniProt P00433)", "T1 sequence (P00433 31-353)": "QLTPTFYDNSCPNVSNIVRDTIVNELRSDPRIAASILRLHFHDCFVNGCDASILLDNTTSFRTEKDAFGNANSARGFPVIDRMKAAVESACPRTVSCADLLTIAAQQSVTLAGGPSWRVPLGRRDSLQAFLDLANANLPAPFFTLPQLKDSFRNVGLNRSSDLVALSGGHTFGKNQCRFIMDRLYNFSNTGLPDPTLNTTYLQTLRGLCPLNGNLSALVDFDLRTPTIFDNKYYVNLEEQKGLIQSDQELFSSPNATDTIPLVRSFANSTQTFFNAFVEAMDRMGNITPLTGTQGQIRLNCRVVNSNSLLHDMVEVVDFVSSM", "assay": "qualitative test as HRP substrate (generation of a fluorescent product with HRP and H2O2)", "conditions": "with HRP and H2O2 in aqueous solution, result in words", "protocol": "The sample was filtered through a sintered glass filter to obtain a clear solution, the solvent evaporated and the residue dissolved in 5 ml DMF. The solution was then evaporated to dryness, dissolved in 1 ml. DMF, followed by a dilution with 4 ml buffer and an assay carried out as described previously employing 100 microliters of the substrate."}, "HRP-antiPRP conjugate": {"molecular_target": "T2, HRP-antiPRP conjugate (Armoracia rusticana, UniProt P00433)", "T2 construct": "purchased Sigma", "T2 sequence (P00433 31-338 limits assumed)": "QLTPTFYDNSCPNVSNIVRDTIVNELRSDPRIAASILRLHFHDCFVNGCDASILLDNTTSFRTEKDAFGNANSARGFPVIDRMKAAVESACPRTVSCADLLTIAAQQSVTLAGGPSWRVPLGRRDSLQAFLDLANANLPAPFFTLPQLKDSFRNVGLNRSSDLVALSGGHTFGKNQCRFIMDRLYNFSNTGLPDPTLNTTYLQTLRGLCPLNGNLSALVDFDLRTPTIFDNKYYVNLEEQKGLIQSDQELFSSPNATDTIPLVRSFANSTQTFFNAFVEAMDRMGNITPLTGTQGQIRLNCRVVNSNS", "assay": "microtiter plate PRP immunoassay with HRP-antiPRP conjugate and fluorogenic substrate", "conditions": "10 minute incubation at 37° C.; for Fluorescence with PRP: 50 ng/ml PRP; for Fluorescence without PRP: PBS buffer instead of PRP", "protocol": "Microtiter plate wells were coated with a solution (250 μl/well) of an amine modified glucose oxidase (1 to 190 dilution, 7.6 mg/ml stock solution) and antibodies to polyribosephosphate (1:2000 dilution in 60 mM carbonate buffer, pH 9.6). After standing overnight, the wells were washed with PBS containing 0.05% Tween 20 (W/V).\nA stock solution was prepared of the fluorogenic substrate of Example II. A 3.8 mg/10 ml DMF solution (1.22 mM) was diluted 1:10 with PBS buffer immediately before use. A substrate mixture was prepared containing 500 μl of the above stock solution, 694 μl of 1.8M glucose, 400 μl of a stock catalase solution and the volume brought to 2 ml with PBS buffer. The stock catalase solution (3.1-4 mg/ml) was prepared by dialysing catalase (C-100 Sigma) in PBS pH 7.2.\nThe following protocol was then employed for the assay. Into each microtiter well coated with amino glucose oxidase (see copending application serial No. 398,505, filed July 15, 1982) and antiPRP was added 100 μl of 50 ng/ml PRP or 100 μl of PBS buffer (pH 7.2) and the mixture incubated for one hour at room temperature. At the end of this time, 50 μl of HRP-antiPRP conjugate was added followed by another one hour incubation. At the end of this time, 100 μl of a substrate mixture was added, followed by a 10 minute incubation at 37° C. with shaking, after which time 200 μl of the incubation mixture was diluted with 1.8 ml, of 0.1M phosphate buffer (pH 8.0) and the fluorescence read."}, "horse radish peroxidase [1]": {"molecular_target": "T3, horse radish peroxidase (Armoracia rusticana, UniProt P00433)", "T3 sequence (P00433 31-353)": "T1 sequence (P00433 31-353)", "assay": "change in fluorescence of substrate with HRP and hydrogen peroxide over 60 seconds", "conditions": "substrate 800 μl, H2O2 100 μl, 60 second interval, pH 8", "protocol": "(§1) In the next assay, the fluorogenic precursor of Example I was employed. […] An assay solution was prepared comprising the […] compound of Example I, hydrogen peroxide, horse radish peroxidase, and buffer (0.1M phosphate, pH 8.0) and the change in fluorescence in the solution determined over a 60 second interval. The substrate solution which was added was 3.9 mg/100 ml concentration in buffer, the hydrogen peroxide was 9.×10^-4 M, the HRP solution was 6.6 ng/ml containing 0.5 mgBSA/ml and the buffer was 0.1M phosphate, pH 8. The following table indicates the results."}, "horse radish peroxidase [2]": {"tested_on": "horse radish peroxidase", "assay": "change in fluorescence of substrate with HRP and hydrogen peroxide over 60 seconds", "conditions": "HRP solution (6.6 ng/ml) 0 μl, substrate 800 μl, H2O2 100 μl, buffer 100 μl; 60 second interval, pH 8", "protocol": "as §1"}, "[3]": {"conditions": "HRP-antiPRP dilution 0 (no conjugate)"}},
  "note": "Values joined by “and” are separate entries in the source; they are usually repeats but may differ in a detail not shown here. Identical values can stand only once.",
  "data": [
    {"smiles": "Cc1cc(Oc2ccc3cc(C(=O)N[C@H]4C(O)O[C@H](CO)[C@@H](O)[C@@H]4O)c(=O)oc3c2)ccc1N", "note": "(stereo partly shown) [Example V, glucosamine derivative of 3-carboxy-7-(3'-methyl-4'aminophenoxy)coumarin]", "values": [
      {"measurement": "activity as HRP substrate", "setting": "HRP", "result": "active as an HRP substrate"}
    ]},
    {"smiles": "Cc1cc(Oc2ccc3cc(C(=O)O)c(=O)oc3c2)ccc1N", "note": "[Example II, 3-carboxy-7-(3'-methyl-4'-aminophenoxy)coumarin]", "values": [
      {"measurement": "Fluorescence with PRP", "setting": "HRP-antiPRP conjugate; [3]", "result": 2.2},
      {"measurement": "Fluorescence without PRP", "setting": "HRP-antiPRP conjugate; [3]", "result": 2.4},
      {"measurement": "Fluorescence with PRP", "setting": "HRP-antiPRP conjugate; HRP-antiPRP dilution 1:80", "result": 79.5},
      {"measurement": "Fluorescence without PRP", "setting": "HRP-antiPRP conjugate; HRP-antiPRP dilution 1:80", "result": 67.1},
      {"measurement": "Fluorescence with PRP", "setting": "HRP-antiPRP conjugate; HRP-antiPRP dilution 1:320", "result": "31.8 and 29.6 and 32.5"},
      {"measurement": "Fluorescence without PRP", "setting": "HRP-antiPRP conjugate; HRP-antiPRP dilution 1:320", "result": "11.0 and 14.2 and 13.4"},
      {"measurement": "Fluorescence with PRP", "setting": "HRP-antiPRP conjugate; HRP-antiPRP dilution 1:1280", "result": 13.8},
      {"measurement": "Fluorescence without PRP", "setting": "HRP-antiPRP conjugate; HRP-antiPRP dilution 1:1280", "result": 5.2}
    ]},
    {"smiles": "O=C(O)CNc1ccc(Oc2ccc3cc(C(=O)O)c(=O)oc3c2)cc1", "note": "[Example III, 3-carboxy-7-(N-carboxymethyl 4'-aminophenoxy)coumarin]", "values": [
      {"measurement": "activity as HRP substrate", "setting": "HRP", "result": "useful as an HRP substrate"}
    ]},
    {"smiles": "Cc1cc(Oc2ccc3cc(C(=O)O)c(=O)oc3c2)cc(Br)c1N", "note": "[Example VI, 3-carboxy-7-(3'-methyl-4'-amino-5'-bromophenoxy)coumarin]", "values": [
      {"measurement": "activity as HRP substrate", "setting": "HRP", "result": "active HRP substrate"}
    ]},
    {"smiles": "Nc1ccc(Oc2ccc3cc(C(=O)O)c(=O)oc3c2)cc1", "note": "[Example I, 3-carboxy-7-(4'-aminophenoxy)coumarin]", "values": [
      {"measurement": "ΔF", "setting": "horse radish peroxidase [1]; HRP solution (6.6 ng/ml) 20 μl, buffer 80 μl", "result": 11.0},
      {"measurement": "ΔF", "setting": "horse radish peroxidase [1]; HRP solution (6.6 ng/ml) 50 μl, buffer 50 μl", "result": 16.2},
      {"measurement": "ΔF", "setting": "horse radish peroxidase [1]; HRP solution (6.6 ng/ml) 100 μl, buffer 0 μl", "result": "29.7 and 30.4"},
      {"measurement": "ΔF", "setting": "horse radish peroxidase [2]", "result": 6.6}
    ]},
    {"smiles": "Cc1cc(Oc2ccc3cc(C(=O)NCCS(=O)(=O)O)c(=O)oc3c2)ccc1N", "note": "[Example IV, taurine derivative of 3-carboxy-7-(3'-methyl-4'-aminophenoxy)coumarin]", "values": [
      {"measurement": "activity as HRP substrate", "setting": "HRP", "result": "useful as a HRP substrate"}
    ]}
  ]
}
